Assay results reported in ChEMBL document CHEMBL1157380, “Aplysamine 6, an alkaloidal inhibitor of Isoprenylcysteine carboxyl methyltransferase from the sponge Pseudoceratina sp” (J Nat Prod, 2008).
The source made the active and inactive calls. The rule behind the calls is not given here.

How the values were obtained:
[1] = target: T1, Protein-S-isoprenylcysteine O-methyltransferase (Homo sapiens, UniProt O60725); test: Inhibition of Icmt using [3H]SAM as substrate
[2] = target: T1, Protein-S-isoprenylcysteine O-methyltransferase; test: Inhibition of Icmt up to 100 uM after 60 mins using [3H]biotin as substrate by artifact assay

T1 sequence (O60725 whole entry): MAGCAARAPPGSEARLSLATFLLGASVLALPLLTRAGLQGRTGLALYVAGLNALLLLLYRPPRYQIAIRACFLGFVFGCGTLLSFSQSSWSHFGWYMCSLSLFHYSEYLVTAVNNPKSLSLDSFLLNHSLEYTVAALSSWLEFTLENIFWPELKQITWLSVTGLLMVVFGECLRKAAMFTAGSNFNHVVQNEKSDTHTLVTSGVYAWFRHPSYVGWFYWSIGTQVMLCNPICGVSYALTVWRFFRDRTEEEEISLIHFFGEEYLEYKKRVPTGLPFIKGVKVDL

COc1ccc(/C=C/C(=O)NCCc2cc(Br)c(OCCCN)c(Br)c2)cc1Br [APLYSAMINE 6]
IC50 [1]: 14 µM | Activity [2]: inactive
